Earlier results on two compounds are cited in patent US20090291974A1, “BOSENTAN SALTS” (priority 2008, published 2009).

The conditions of series [1]: acidic and basic centers, overall value.
Test in series [2]: not given
The source holds these as a separate data set.

For `COc1ccccc1Oc1c(NS(=O)(=O)c2ccc(C(C)(C)C)cc2)nc(-c2ncccn2)nc1OCCO` [Bosentan monohydrate, bosentan monohydrate], under “acetone”, the solubility in acetone entry was “freely soluble”. Also, the solubility in dichloromethane entry (dichloromethane) was “freely soluble”. The solubility in ethanol result (ethanol) was “soluble”. Also, the “solubility in ethyl acetate” value (ethyl acetate) is “soluble”. The solubility in hexane entry (hexane) is on record as “very slightly soluble”. The solubility in isopropanol entry (isopropanol) is given as “slightly soluble”. The solubility in methanol result (methanol) is “slightly soluble”.

In the case of `COc1ccccc1Oc1c(NS(=O)(=O)c2ccc(C(C)(C)C)cc2)nc(-c2ncccn2)nc1OCCO` [Bosentan], in series [1], the “overall pKa” value is recorded as 5.46. In addition, the “solubility in aqueous solution at pH 1.1” value in series [2] (aqueous solution, pH 1.1) is given as 0.1 mg/100 ml. For the same compound, the “solubility in aqueous solution at pH 4.0” value in series [2] (aqueous solution, pH 4.0) is 0.1 mg/100 ml. Also, in series [2] (aqueous solution, pH 5.0), the “solubility in aqueous solution at pH 5.0” value is given as 0.2 mg/100 ml. Further, the “solubility in aqueous solution at pH 7.5” value in series [2] (aqueous solution, pH 7.5) is listed as 43 mg/100 ml. In series [2] (water), the solubility in water was 1.0 mg/100 ml.
